Measurements as given in patent publication US20110306762A1, “ACID ADDITION SALT OF UDENAFIL, PREPARATION METHOD THEREOF AND PHARMACEUTICAL COMPOSITION COMPRISING THE SAME” (priority 2009, published 2011).

Assays:
[1] = Crystallinity test of acid addition salts of Udenafil; type: physicochemical; design: key: ◯: Formation of crystal; X: No formation of crystal; details: for Crystallinity test 1-2: crystallization: whether crystallization occurs after dissolving the salt in a suitable solvent; for Crystallinity test 1-1: detecting whether the crystal is formed in the reaction solution
Protocol: The acid addition salts of Udenafil obtained in Examples 1 to 6 and Comparative Examples were tested for crystallinity and hygroscopicity as follows.
1) detecting whether the crystal is formed in the reaction solution, and
2) crystallization: detecting whether crystallization occurs after dissolving acid addition salt of Udenafil in a suitable solvent.

[2] = Hygroscopicity test of acid addition salts of Udenafil; type: physicochemical; details: exposed for 2 hours, room temperature, relative humidity 43%
[3] = Solubility test in distilled water by HPLC; type: physicochemical
Text: To test the solubility of the acid addition salts of Udenafil in distilled water, the following experiments were preformed.
The analysis conditions for HPLC were as follows:
Detector: ultraviolet ray absorbance measured at wavelength 292 nm
Column: octadecyl silica gel C18 (4.6×150 mm, 5 μm)
Mobile phase: an aqueous solution of potassium dihydrogenphosphate (0.02M):acetonitrile=70:30

[4] = in vivo; cited from earlier work
PDE-5 = PDE-5 (Homo sapiens, UniProt O76074); details: compared with the conventional compounds; cited from earlier work

Row | Compound | Crystallinity test 1-2 [1] | Crystallinity test 1-1 [1] | other results
1 | CC1(C)C2CCC1(CS(=O)(=O)O)C(=O)C2.CCCOc1ccc(S(=O)(=O)NCCC2CCCN2C)cc1-c1nc2c(CCC)nn(C)c2c(=O)[nH]1 (centres unmarked) [Example 3, Camphorsulfonic Acid Addition Salt of Udenafil] | ◯ | ◯ | Hygroscopicity (weight change ratio, %) [2]: 0.7%; solubility in the distilled water [3]: remarkably excellent solubility; Average of measured peak area ([3]; HPLC, UV 292 nm): 7,142,473; First measured peak area ([3]; HPLC, UV 292 nm): 7,141,140; second measured peak area ([3]; HPLC, UV 292 nm): 7,127,027; third measured peak area ([3]; HPLC, UV 292 nm): 7,158,961
2 | CCCOc1ccc(S(=O)(=O)NCCC2CCCN2C)cc1-c1nc2c(CCC)nn(C)c2c(=O)[nH]1 (centres unmarked) [Udenafil, 5-[2-propyloxy-5-(1-methyl-2-pyrrolidinyleneamidosulfonyl)phenyl]-1-methyl-propyl-1,6-dihydro-7H-pyrazolo(4,3-d)pyrimidine-7-one] |  |  | solubility in the distilled water [3]: hardly dissolved; detection in the distilled water ([3]; HPLC): not detected; half-life [4]: 12 h; time to maximum peak plasma concentration [4]: 1 h; selectivity to PDE-5 (PDE-5): notably higher selectivity
3 | O=CO [formic acid] | X | X | 
4 | O=C(O)CCCC(=O)O [glutaric acid] | X | X | 
5 | O=C(O)CNC(=O)c1ccccc1 [hippuric acid] | X | X | 
6 | Adipic Acid Addition Salt of Udenafil [Example 5] | ◯ | ◯ | 
7 | Benzenesulfonic Acid Addition Salt of Udenafil [Example 2] | ◯ | ◯ | 
8 | Cinnamic Acid Addition Salt of Udenafil [Example 4] | ◯ | ◯ | 
9 | Oxalic Acid Addition Salt of Udenafil [Example 1] | ◯ | ◯ | 

More lines, main results first:

Row | Crystallinity test 1-2 [1] | Crystallinity test 1-1 [1] | Compound | other results
10 | X | X | N[C@@H](CC(=O)O)C(=O)O [aspartic acid] | 
11 | X | X | O=C(O)CC(O)(CC(=O)O)C(=O)O [citric acid] | 
12 | X | X | O=C(O)/C=C/C(=O)O [fumaric acid] | 
13 | X | X | N[C@@H](CCC(=O)O)C(=O)O [glutamic acid] | 
14 | X | X | CC(O)C(=O)O (centres unmarked) [lactic acid] | 
15 | X | X | O=C(O)/C=C\C(=O)O [maleci acid] | 
16 | X | X | O=C(O)/C=C\C(=O)O [maleic acid] | 
17 | X | X | O=C(O)CC(=O)O [malonic acid] | 
18 | X | X | O=C(O)CCC(=O)O [succinic acid] | 
19 | X | X | O=C(O)C(O)C(O)C(=O)O (centres unmarked) [tartaric acid] | 
